Experimental data published in PMC5339480, “Mutagenic and Cytotoxicity LQB 123 Profile: Safety and Tripanocidal Effect of a Phenyl-t-Butylnitrone Derivative” (BioMed Research International, 2017).

Tests used:
[1] = system: Salmonella typhimurium TA98; assay: Salmonella/microsome assay, TA98; format: cell-based; conditions: +S9, positive control (PC) 517 μM
From the text: (§1) DMSO was used as a negative control. […] All chemicals were from Sigma Co.

[2] = system: Salmonella typhimurium TA97; assay: Salmonella/microsome assay, TA97; format: cell-based; conditions: +S9, positive control (PC) 517 μM
From the text: as §1

[3] = system: Salmonella typhimurium TA1535; assay: Salmonella/microsome assay, TA1535
Description: (§2) Stationary growth cultures of histidine auxotrophic Salmonella typhimurium (2 × 10^9 cells/mL) TA97, TA98, TA100, TA102, and TA1535 strains were obtained at 37°C in lysogenic broth (LB, 10 g/L tryptone; 5 g/L yeast extract; 10 g/L NaCl) containing 8 μg/mL ampicillin and 2 μg/mL tetracycline (only for TA102). All strains used in the present work were from our laboratory collection. […] Then, the Ames test was performed according to Maron and Ames. DMSO was used as a negative control. […] All chemicals were from Sigma Co.

[4] = system: Salmonella typhimurium TA100; assay: Salmonella/microsome assay, TA100
Description: as §2

[5] = system: T. cruzi; set-up: method as in PMID 20510218; conditions: treated only with PBN; cited from earlier work
[6] = system: Salmonella; conditions: cited from earlier work
[7] = TA1535, −S9, positive control (PC) 154 μM
[8] = TA100, −S9, positive control (PC) 769 μM

SMILES: Nc1ccc2cc3ccccc3cc2c1 [2-AA, 2-aminoanthracene]
- MI (mutagenicity index) [1]: 16.0
- Number of revertant colonies per plate, Mean ± SD [1]: 291 ± 36^∗
- MI (mutagenicity index) [2]: 9.0
- Number of revertant colonies per plate, Mean ± SD [2]: 1488 ± 139^∗
- MI (mutagenicity index) ([3]; Salmonella typhimurium): 10.1
- Number of revertant colonies per plate, Mean ± SD ([3]; Salmonella typhimurium): 168 ± 18^∗
- MI (mutagenicity index) ([4]; Salmonella typhimurium): 4.6
- Number of revertant colonies per plate, Mean ± SD ([4]; Salmonella typhimurium): 1257 ± 107^∗

SMILES: [N-]=[N+]=[N-].[Na+] [AS, sodium azide]
- MI (mutagenicity index) [3, 7]: 47.3
- Number of revertant colonies per plate, Mean ± SD [3, 7]: 615 ± 83^∗
- MI (mutagenicity index) [4, 8]: 3.2
- Number of revertant colonies per plate, Mean ± SD [4, 8]: 637 ± 52^∗

SMILES: CC(C)(C)/[N+]([O-])=C/c1ccccc1 [PBN, alpha-phenyl-tert-butyl nitrone]
- parasite persistence [5]: no decline in parasite persistence

SMILES: O=C(Cn1ccnc1[N+](=O)[O-])NCc1ccccc1 [benznidazole]
- dose giving the maximum mutagenic rate [6]: 100 micrograms per plate
